The values that follow come from publication PMC11904221 (EMBO Molecular Medicine, 2025).

Converted amounts (≈) assume the structure as drawn. Where two headings read alike, the source gives them in different places. Where a SMILES comes first, the peptide text is derived from it.

The nature of series [1]: in vivo. The settings on record: BALB/c, mouse, ip. Here is the method: Pharmacological profile of APLN-DM peptide
Maximal Tolerated Dose (MTD) study of APLN -DM in mice
Six groups comprising six Balb/C mice per group (3 males and 3 females) were assigned to the study. In each gender, one control group (1 Male (M)/1 female (F)) received the reference solution (vehicle) and 5 […]
mg/kg (4M/4F), 2000 mg/kg (5M/5F) and 1500 mg/kg (6M/6F). APLN-DM peptide was administrated via intra-peritoneal (IP) single injection at day 1 followed by observation during 14 days. During the study, mortality, morbidity, general clinical signs and bod y weight were recorded. In the end of the study pathology and organ necropsy examination were performed. Thereby, APLN-DM peptide and vehicle were administered to mice according to Table-1 and their effects were analyzed according to Table-2.
Each test item dose was administrated to 3 female and 3 male mice. The administration was performed IP at a dose volume of 10 ml/kg. Dosing was performed according to Figure-1 and each increase in dose pending on the outcome of the previous dose (results of clinical signs). The lag time between the increasing doses was approximately 48h.
No. (n=) Mouse# Treatment Dose Level administration administratio […]
Table-1. Study design -1. […], […]
Study Day* Procedure Body Weight Clinical Mortality & Organ
Sign Morbidity observation
2-14 - Twice weekly Once -
15 Termination √ √ Gross pathology
Figure 1 - Decisional tree for successive dosing for MTD determination […]
At study termination, body weight (Figure 2 and Figure 3) and gross pathology abnormalities were analyzed in all animals. Main pathological finding were blood clots in intestine and chest cavity. Treatment-related clinical adverse side effects (purple tail, lethargy, decreased motor activity) were observed also in groups treated either with 200, 500, 1000 and 1500 mg/kg. The tail recovered a normal color after 1 hour in all dose groups. […]
abnormalities were detected in all male and female animals from these groups at the scheduled termination […]

Series [2] can be described thus: Pharmacokinetic profile in mice, LC/MS. The conditions noted are these: mouse, iv, 100 mg/kg. The series is classed as in vivo, mouse. As to the method: Pharmacokinetic profile of APLN-DM in mice
The aim of the current study was to evaluate pharmacokinetic properties of APLN-DM peptide administrated intravenously (IV) or intraperitoneously (IP) in Balb/C mice. […]
for the IP group). Development of quantification method was performed using liquid chromatography coupled to mass spectrometry (LC/MS).
Results: Samples obtained in vivo were analyzed according to quantification-developed method and the peptide was detectable until 15 minutes after administration. Analysis allowed determining that APLN-DM […]
All animals were divided to three groups of 27 animals, one of 12 animals and one of 3 animals (vehicle) and will receive the corresponding test item according to Table 1. Each animal was weighed and administered at the appropriate volume.
Concentration ROA Blood Individual animal numbers
Group No. Treatment Dose Collect
Table 11 - Group allocation
Development of analytic method
Standard range from 0.5 to 100 µM was prepared and analysed for each fragmented ion as previously […]
Standard curves obtained for each ion are represented in Figure 6.
Figure 8: Standard curves obtained by quantification of each fragmented ion The best linearity was obtained by quantifying the fragmented ion 785 (z=5).
Quantification of APLN-DM in samples
Summary of analytical method development:
Quantification method was performed according to previous work. In summary, samples were analysed with a LC-MS triple quadripole system (ESI QqQ). The chromatographic system was a UPLC activity (Waters) coupled to a mass spectrometer TSQ Quantum Ultra (Thermo) equipped with triple quadripole analyser and electrospray ionisation (ESI) system. The selected column was Kinetex F5 […] 50x2.1 mm (Phenomenex). The analysis was made by quantifying fragmented ion z=5 (m/z=785) in samples compared […]
quantitation was previously determined to be 0.5 µM. Samples were analysed after protein precipitation as […]
In vivo phase samples analysis
As the stability of peptide is low, even in frozen plasma, it was decided to re-run the in vivo phase for the highest dose and to use freshly prepared samples.
26 samples were used for analysis.
Only samples taken 5 and 10 minutes after peptide administration presented detectable concentrations (see
Table 9). While 15 min results were on the level of accuracy (linearity threshold values). At a later time […]
estimated based on the 5 and 10 min measurements.
Sample ID Area Calculated amount

Series [3] is described as follows: in vitro.
The conditions of series [4]: pH 7.4, aqueous buffer.
Series [5] can be described thus: in vitro. The source holds these as a separate data set.
For series [6] the following is noted: for microsomal CLint: liver microsomes. On the technique in general: Liver microsomes are a subcellular fraction often used to study metabolism.

Turning to `CSCC[C@H](NC(=O)[C@@H]1CCCN1C(=O)CNC(=O)[C@H](CCCCN)NC(=O)[C@H](Cc1c[nH]cn1)NC(=O)[C@H](CO)NC(=O)[C@H](CC(C)C)NC(=O)[C@H](CCCNC(=N)N)NC(=O)[C@@H]1CCCN1C(=O)[C@H](CCCNC(=N)N)NC(=O)[C@H](CCC(N)=O)NC(=O)[C@H](CO)NC(=O)[C@H](CO)NC(=O)[C@H](Cc1ccccc1)NC(=O)[C@H](CCCCN)NC(=O)[C@H](CO)NC(=O)[C@H](CO)NC(=O)CNC(=O)CNC(=O)[C@H](CCC(N)=O)NC(=O)[C@H](Cc1c[nH]c2ccccc12)NC(=O)[C@@H]1CCCN1C(=O)CNC(=O)[C@@H]1CCCN1C(=O)CNC(=O)[C@H](CC(N)=O)NC(=O)[C@H](CCCNC(=N)N)NC(=O)[C@H](CO)NC(=O)CNC(=O)[C@H](CCCNC(=N)N)NC(=O)[C@@H]1CCCN1C(=O)[C@H](CCC(N)=O)NC(=O)[C@@H](NC(=O)[C@@H](N)CC(C)C)C(C)C)C(=O)N1CCC[C@H]1C(=O)N[C@@H](Cc1ccccc1)C(=O)O` [APLN-DM] (H-LVQPRGSRNGPGPWQGGSSKFSSQRPRLSHKGPMPF-OH), the MTD at 336 h in series [1] (female) amounted to 1000 mg/kg. The MTD at 336 h in series [1] (male) is 1500 mg/kg. Moreover, the level at time molar at 5 min in series [2] (Balb/C, plasma, group 2F, 100 mg/kg IV, 5 min, samples 1-3, no unit printed (standards in µM), read-out: Calculated amount in plasma sample) is 0.793 µM. In addition, in series [2] (Balb/C, plasma, group 2F, 100 mg/kg IV, 10 min, samples 1-3, read-out: Calculated amount in plasma sample), the level at time molar at 10 min is 658 nM. Further, the half-life (in general, how long it takes for the measured level to halve) in series [2] (female, Balb/C mice plasma, LC/MS, estimated from the 5 and 10 min samples, read-out: half-life in vivo in mice) was roughly 0.333 h. In addition, in series [3], the “% Protein bound, 1st” value is 26.1%; the “% Protein bound, 2nd” value worked out at 26.9%; the “% Recovery, Mean” value turned out to be 93%. Moreover, the fraction unbound (commonly the share of the substance not bound to proteins or other matrix) at 4 h, 1e-05 M in series [3] (CD-1, mouse, plasma) was 0.74. The solubility (thermodynamic) (as a rule, the concentration in solution at equilibrium with solid) in series [4] turned out to be 187 µM (≈ 734 µg/mL). The “Half-life in human plasma” value in series [5] was greater than 18 h. Moreover, in series [5] (human), the “Half-life, 1st” value amounted to 21.173 h and the “Half-life, 2nd” value worked out at 16.21 h. In addition, in series [5] (human, plasma), the half-life at 1 µM is 18.7 h, the fraction remaining (commonly the share of the starting amount still present when the sample was taken) at 0.5 h turned out to be 99%, the amount remaining at 1 h stood at 98% and the share remaining at 2 h was determined as 93%. In series [6], the clearance category result was “high” and the microsomal CLint (usually the rate of metabolic loss divided by the concentration) was less than 116 µL/min/mg. For the same compound, in series [6] (human), the “Half-life, 1st” value was 1.24 h; the “Half-life, 2nd” value was 1.14 h; the “Half-life, Mean” value was greater than 1 h; the microsomal CLint is less than 116 µL/min/mg.
